Measured values taken from patent US10273226B2, “Pyrazolyl-heteroarylamides as pesticides” (Bayer Animal Health GmbH, priority 2014, dated 2019).

Columns and labels:
Type in all cases: in vivo
Boophilus microplus = Boophilus microplus injection test; conditions: application rate 20 μg/animal; injection into abdomen; assessed after 7 days
Method in brief: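 Steps: dilute compound in DMSO to the desired concentration; inject 1 μl abdominally into 5 engorged adult females; keep in climate-controlled dishes; at 7 days score fertile egg laying, incubating doubtful eggs until hatch at about 42 days.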

Rhipicephalus sanguineus = Rhipicephalus sanguineus in vitro contact test with adult brown dog ticks; conditions: application rate 5 μg/cm^2 (500 g/ha); after 48 h; ticks dead or moribund
Method in brief: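 Test tubes (25 ml) were coated by dissolving active ingredient in acetone p.a., diluting to the required concentration, and spreading 250 μl over the inner walls and base on an orbital shaker at 30 rpm for 2 h. Once dry, 5-10 adult Rhipicephalus sanguineus were added, and tubes were capped with perforated lids and kept horizontal in darkness at room temperature. At 48 h, ticks were knocked down and heated at 45-50° C. for up to 5 min. Those unable to climb away were counted dead or moribund, and efficacy ran from 0% to 100%.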

Musca domestica = Musca domestica test; conditions: application rate 100 ppm; adult houseflies; after 2 days
Protocol: (§1) Solvent: dimethyl sulphoxide
To produce an appropriate active ingredient formulation, 10 mg of active ingredient are mixed with 0.5 ml of dimethyl sulphoxide, and the concentrate is diluted with water to the desired concentration.
Vessels containing a sponge treated with sugar solution and the active ingredient formulation of the desired concentration are populated with 10 adult houseflies (Musca domestica).
After 2 days, the kill in % is determined. 100% means that all of the flies have been killed; 0% means that none of the flies have been killed.

Tetranychus urticae = Tetranychus urticae spray test, OP-resistant; conditions: application rate 100 g/ha; after 6 days
Method in brief: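 Percent kill is assessed 6 days after spraying infested Phaseolus vulgaris leaf discs, with all mite stages present. Compound is applied as a solvent/emulsifier aqueous formulation at the desired concentration.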

Ctenocephalides felis [1] = assay: Ctenocephalides felis oral test; conditions: application rate 100 ppm in citrated cattle blood; after 2 days
Method in brief: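 Fleas ingest treated citrated cattle blood (DMSO formulation) through parafilm; percent killed assessed after two days.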

Lucilia cuprina = Lucilia cuprina test; conditions: application rate 100 ppm; L1 larvae; after 2 days
Method in brief: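 Mortality read at 2 days as percent larvae killed (100% = all, 0% = none). Test used roughly 20 first-instar larvae on minced horsemeat dosed with water-diluted DMSO formulation of compound.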

Ctenocephalides felis [2] = assay: Ctenocephalides felis in vitro contact test with adult cat fleas; conditions: application rate 5 μg/cm^2 (500 g/ha); after 48 h; fleas dead or moribund
Method in brief: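 Adult Ctenocephalides felis (5-10 per tube) were held 48 h at room temperature in tubes whose inner walls carried dried active ingredient, e.g. 5 μg/cm^2 from a 900 ppm acetone coating. Percent efficacy reflects fleas motionless or uncoordinated after being knocked to the tube base.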

Phaedon cochleariae = Phaedon cochleariae spray test; conditions: application rate 100 g/ha; larvae; after 7 days
Method in brief: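 Mortality of Phaedon larvae, in %, was read 7 days after release onto sprayed, dried Brassica pekinensis leaf discs. Test dilutions were prepared in water with 1000 ppm emulsifier. A score of 0% means no larvae died and 100% means all were killed.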

Spodoptera frugiperda = Spodoptera frugiperda spray test; conditions: application rate 100 g/ha; caterpillars; after 7 days
Method in brief: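 Percent kill of armyworm caterpillars was scored 7 days after they were placed on dried, sprayed Zea mays leaf discs. Spray solutions were made by dissolving active ingredient in solvent and diluting with 1000 ppm emulsifier water.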

Myzus persicae = Myzus persicae spray test; conditions: application rate 100 g/ha; after 6 days
Protocol: Myzus persicae—Spray Test
To produce an appropriate active ingredient formulation, 1 part by weight of active ingredient is dissolved using the specified parts by weight of solvent and made up with water containing an emulsifier concentration of 1000 ppm until the desired concentration is attained. To produce further test concentrations, the preparation is diluted with emulsifier-containing water.
Discs of Chinese cabbage leaves (Brassica pekinensis) infested by all stages of the green peach aphid (Myzus persicae) are sprayed with an active ingredient formulation of the desired concentration.
After 6 days, efficacy in % is determined. 100% means that all the aphids have been killed; 0% means that none of the aphids have been killed.

[3] = tested on: Boophilus microplus Parkhurst strain, SP-resistant; assay: Boophilus microplus dip test; conditions: application rate 100 ppm, assessed after 7 days
Protocol: Boophilus microplus—Dip Test
Test animals: cattle ticks (Boophilus microplus) Parkhurst strain, SP-resistant
as §1
10 mg of active ingredient are dissolved in 0.5 ml of dimethyl sulphoxide. For the purpose of producing a suitable formulation, the active ingredient solution is diluted with water to the concentration desired in each case.
This active ingredient formulation is pipetted into tubes. 8-10 adult engorged female cattle ticks (Boophilus microplus) are transferred into a further tube with holes. The tube is immersed into the active ingredient formulation, and all the ticks are completely wetted. After the liquid has run out, the ticks are transferred on filter discs into plastic dishes and stored in a climate-controlled room.
Efficacy is assessed after 7 days by laying of fertile eggs. Eggs which are not visibly fertile are stored in a climate-controlled cabinet until the larvae hatch after about 42 days. An efficacy of 100% means that none of the ticks has laid any fertile eggs; 0% means that all the eggs are fertile.

| SMILES | efficacy (laying of fertile eggs) (Boophilus microplus) [%] | efficacy (Rhipicephalus sanguineus) [%] | efficacy (kill in %) (Musca domestica) [%] | efficacy (Tetranychus urticae) [%] | efficacy (kill in %) (Ctenocephalides felis [1]) [%] | efficacy (kill in %) (Lucilia cuprina) [%] | efficacy (Ctenocephalides felis [2]) [%] | efficacy (Phaedon cochleariae) [%] | efficacy (Spodoptera frugiperda) [%] | efficacy (Myzus persicae) [%] | efficacy (laying of fertile eggs) [3] [%] |
| --- | --- | --- | --- | --- | --- | --- | --- | --- | --- | --- | --- |
| Cn1nc(C(F)(F)C(F)(F)F)c(C(F)(F)F)c1-n1cc(-c2cccc(NC(=O)c3ccc(F)cc3)c2)cn1 [Example 1-003] | 100 | 100 | 100 | 100 | 100 | 100 | 100 | 100 | 100 | 90 | – |
| Cn1nc(C(F)(F)C(F)(F)F)c(C(F)(F)F)c1-n1cc(-c2cccc(NC(=O)c3ccncc3F)c2)cn1 [Example 1-004] | 100 | 100 | 100 | 100 | 100 | 100 | 100 | 100 | 100 | – | 100 |
| Cn1nc(C(F)(F)C(F)(F)F)c(C(F)(F)F)c1-n1cc(-c2cccc(NC(=O)c3ccnc(Cl)c3)c2)cn1 [Example 1-006] | 100 | – | 100 | 100 | 100 | 100 | 100 | 100 | 100 | 100 | – |
| Cn1cc(C(=O)Nc2cccc(-c3cnn(-c4c(C(F)(F)F)c(C(F)(F)C(F)(F)F)nn4C)c3)c2)cn1 [Example 1-019] | 100 | – | 100 | 100 | 100 | 100 | – | 100 | 100 | 90 | – |
| Cn1nc(C(F)(F)C(F)(F)F)c(C(F)(F)F)c1-n1cc(-c2ccc(F)c(NC(=O)c3ncccn3)c2)cn1 [Example 1-036] | 100 | 100 | 100 | – | 100 | 100 | 100 | 100 | 100 | 100 | – |
| CN(C(=O)c1ccc(F)cc1)c1cc(-c2cnn(-c3c(C(F)(F)F)c(C(F)(F)C(F)(F)F)nn3C)c2)ccc1F [Example 1-037] | 100 | – | 90 | – | 100 | 100 | 100 | 100 | 100 | – | 80 |
| COc1cccc(C(=O)Nc2cc(-c3cnn(-c4c(C(F)(F)F)c(C(F)(F)C(F)(F)F)nn4C)c3)ccc2F)c1 [Example 1-042] | 100 | 100 | – | 100 | 100 | 100 | – | 100 | – | – | 90 |
| Cn1nc(C(F)(F)C(F)(F)F)c(C(F)(F)F)c1-n1cc(-c2ccc(F)c(NC(=O)c3cccs3)c2)cn1 [Example 1-049] | 100 | 100 | 80 | – | 100 | 100 | 100 | – | – | – | 100 |
| Cc1ccc(C(=O)Nc2cc(-c3cnn(-c4c(C(F)(F)F)c(C(F)(F)C(F)(F)F)nn4C)c3)ccc2F)cc1 [Example 1-060] | 100 | 100 | – | 100 | 100 | 100 | 80 | 100 | 83 | – | 100 |
| CC(C)C(=O)Nc1cc(-c2cnn(-c3c(C(F)(F)F)c(C(F)(F)C(F)(F)F)nn3C)c2)ccc1F [Example 1-064] | 100 | 100 | – | 100 | 100 | 100 | 100 | 100 | 100 | 100 | – |
| Cn1nc(C(F)(F)C(F)(F)F)c(C(F)(F)F)c1-n1cc(-c2ccc(F)c(NC(=O)c3cccc(F)c3)c2)cn1 [Example 1-073] | 100 | 100 | 90 | 100 | 100 | 100 | 100 | 100 | 100 | – | 100 |
| CCC(=O)Nc1cc(-c2cnn(-c3c(C(F)(F)F)c(C(F)(F)C(F)(F)F)nn3C)c2)ccc1F [Example 1-076] | 100 | 100 | – | 90 | 100 | 95 | 100 | 100 | 100 | 100 | – |
| Cc1cccc(C(=O)Nc2cc(-c3cnn(-c4c(C(F)(F)F)c(C(F)(F)C(F)(F)F)nn4C)c3)ccc2F)c1C [Example 1-080] | 100 | – | – | – | 95 | – | – | – | – | – | 100 |
| Cc1oncc1C(=O)Nc1cc(-c2cnn(-c3c(C(F)(F)F)c(C(F)(F)C(F)(F)F)nn3C)c2)ccc1F [Example 1-081] | 100 | 100 | – | 100 | 100 | 100 | 100 | 100 | 100 | 100 | – |
| Cn1nc(C(F)(F)C(F)(F)F)c(C(F)(F)F)c1-n1cc(-c2ccc(F)c(NC(=O)c3cncc(F)c3)c2)cn1 [Example 1-086] | 100 | 100 | 100 | 90 | 100 | 100 | 100 | 100 | 100 | 100 | – |
| Cn1nc(C(F)(F)C(F)(F)F)c(C(F)(F)F)c1-n1cc(-c2cnc(Cl)c(NC(=O)c3ccc(F)cc3)c2)cn1 [Example 2-001] | 100 | 100 | 100 | 100 | 100 | 100 | – | 100 | 100 | – | 80 |
